Measured values published in PubChem BioAssay (NCI).
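Each compound was tested at five concentrations against cells in 96-well plates for 48 hours. TGI denotes the concentration required for complete inhibition of growth.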

Columns and labels:
Assay in all cases: NCI anticancer screen, dose series, 48 h
PC-3 prostate = system: PC-3 prostate
HOP-62 NSCLC = system: HOP-62 NSCLC
SF-268 CNS = system: SF-268 CNS
NCI-H460 lung = system: NCI-H460 lung
OVCAR-8 ovarian = system: OVCAR-8 ovarian
786-0 renal = system: 786-0 renal
RPMI-8226 leukemia = system: RPMI-8226 leukemia
SNB-75 CNS = system: SNB-75 CNS
MALME-3M melanoma = system: MALME-3M melanoma
HS 578T breast = system: HS 578T breast
HOP-92 NSCLC = system: HOP-92 NSCLC
MDA-N = system: MDA-N
SK-MEL-28 melanoma = system: SK-MEL-28 melanoma
K-562 leukemia = system: K-562 leukemia
HCC-2998 colon = system: HCC-2998 colon
NCI-H522 lung = system: NCI-H522 lung
TK-10 renal = system: TK-10 renal
NCI-H23 lung = system: NCI-H23 lung
HL-60(TB) leukemia = system: HL-60(TB) leukemia
SF-539 CNS = system: SF-539 CNS
HT29 colon = system: HT29 colon
SNB-19 CNS = system: SNB-19 CNS
OVCAR-3 ovarian = system: OVCAR-3 ovarian
KM12 colon = system: KM12 colon
T-47D breast = system: T-47D breast
SK-MEL-2 melanoma = system: SK-MEL-2 melanoma
SF-295 CNS = system: SF-295 CNS
SK-MEL-5 melanoma = system: SK-MEL-5 melanoma
SR leukemia = system: SR leukemia
BT-549 breast = system: BT-549 breast
ACHN renal = system: ACHN renal
UO-31 renal = system: UO-31 renal
MDA-MB-231 breast = system: MDA-MB-231 breast
UACC-62 melanoma = system: UACC-62 melanoma
M14 melanoma = system: M14 melanoma
RXF 393 renal = system: RXF 393 renal
MCF7 breast = system: MCF7 breast
CAKI-1 renal = system: CAKI-1 renal
DU-145 prostate = system: DU-145 prostate
LOX IMVI melanoma = system: LOX IMVI melanoma
SW-620 colon = system: SW-620 colon
NCI-H226 lung = system: NCI-H226 lung
MOLT-4 leukemia = system: MOLT-4 leukemia
MDA-MB-435 = system: MDA-MB-435
IGROV1 ovarian = system: IGROV1 ovarian
HCT-116 colon = system: HCT-116 colon
HCT-15 colon = system: HCT-15 colon
NCI/ADR-RES ovarian = system: NCI/ADR-RES ovarian
SN12C renal = system: SN12C renal
UACC-257 melanoma = system: UACC-257 melanoma
U251 CNS = system: U251 CNS
A549 NSCLC = system: A549 NSCLC

Measured: TGI

Cc1ccc(-c2n[nH]c(=O)n2NC(=O)c2ccccc2C(=O)O)cc1
> 100 µM: PC-3 prostate | HOP-62 NSCLC | SF-268 CNS | NCI-H460 lung | OVCAR-8 ovarian | 786-0 renal | RPMI-8226 leukemia | SNB-75 CNS | MALME-3M melanoma | HS 578T breast | HOP-92 NSCLC | MDA-N | SK-MEL-28 melanoma | K-562 leukemia | HCC-2998 colon | NCI-H522 lung | TK-10 renal | NCI-H23 lung | HL-60(TB) leukemia | SF-539 CNS | HT29 colon | SNB-19 CNS | OVCAR-3 ovarian | KM12 colon | T-47D breast | SK-MEL-2 melanoma | SF-295 CNS | SK-MEL-5 melanoma | SR leukemia | BT-549 breast | ACHN renal | UO-31 renal | MDA-MB-231 breast | UACC-62 melanoma | M14 melanoma | RXF 393 renal | MCF7 breast | CAKI-1 renal | DU-145 prostate | LOX IMVI melanoma | SW-620 colon | NCI-H226 lung | MOLT-4 leukemia | MDA-MB-435 | IGROV1 ovarian | HCT-116 colon | HCT-15 colon | NCI/ADR-RES ovarian | SN12C renal | UACC-257 melanoma | U251 CNS | A549 NSCLC
